One data set concerns the target recombinant PI3 kinase α (Homo sapiens (Human), UniProt P42336). In words: Enzyme Inhibition Assay (HTRF PI3K enzyme assay, TR-FRET). The format is biochemical. The procedure, abridged: (§1)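 TR-FRET readout after 15-18 hr at RT with biotinylated PIP3, GST-tagged GRP1 PH domain and europium/APC fluorophores; product PIP3 displaces the tracer and lowers the signal. Beforehand, compound and PIP2 were reacted for 2 hr at RT with human recombinant PI3Kα, δ or γ.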

A further data set concerns the target recombinant PI3 kinase γ (Homo sapiens (Human), UniProt P48736). The data set is described as above. It is filed as biochemical. The procedure, abridged:
as §1

A further data set concerns the target recombinant PI3 kinase δ (Homo sapiens (Human), UniProt O00329). The data set is described as above. The format is biochemical. The procedure, abridged: as §1
Data set [1] deals with H2O2 induced pAkt in D-U937 cells. In words: PI3Kδ Cell Based Assay (H2O2 induced pAkt). The conditions noted are these: Homo sapiens. The procedure, abridged:
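Read-out is the pAkt/total Akt signal ratio, measured with anti-pAkt and anti-pan-Akt antibodies after H2O2 stimulation. Cells were U937 monocytes given PMA (100 ng/mL) for 48 to 72 hr. IC50 values fitted from compound serial dilutions.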

Data set [2] relates to PMA-differentiated U937 cells. In words: MTT Assay (cell viability). It is filed as cell-based, Human. The following applies: percentage loss of cell viability; for Cell Viability MTT Assay in D-U937 cells at 4 hr: 4 hr in 5% FCS; for Cell Viability MTT Assay in D-U937 cells at 24 hr: 24 hr in 10% FCS. The procedure, abridged: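 Differentiated U937 cells treated with compound for 4 hr (5% FCS) or 24 hr (10% FCS), then given MTT for 1 hr; formazan dissolved in DMSO and absorbance read at 550 nm. Viability loss expressed as % versus 0.5% DMSO vehicle.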

Data set [3] is described as follows: Stereochemical analysis by chiral stationary phase HPLC (atropisomerism). The following applies: chiral stationary phase HPLC (16 different conditions for the examples). It is filed as physicochemical. As to the method:
Each of these mobile phase are compatible with the column packings referred to above, providing sixteen different solvent and stationary phase permutations. Modifiers such as triethylamine (0.1%), formic acid (0.1%) may be added to improve the resolution
Semi-preparative Chiral Stationary Phase LC-UV was performed on a Gilson preparative modular system using a Daicel Chiralpak AD semi-prep column ([…], 20×250 mm) and a flow rate of 18 mL/min eluting with an isocratic method over 20 min using […] heptane:IPA and 0.1% triethylamine employing an injection volume of 1.0 mL.

The mark [4] stands for this setting: activity range, read-out: PI3 Kinase Inhibition IC50 values at stated Isozyme α.
The mark [5] stands for this setting: activity range, read-out: PI3 Kinase Inhibition IC50 values at stated Isozyme γ.
[6] abbreviates: activity range, read-out: PI3 Kinase Inhibition IC50 values at stated Isozyme δ.
Where [7] appears, read: dU937, activity range, D-U937 cells, read-out: Cellular Activity IC50 values (H2O2 induced pAkt D-U937 Cells).
Where [8] appears, read: dU937, read-out: Cellular Activity IC50 values (H2O2 induced pAkt D-U937 Cells).

SMILES strings stand for the structures. Where two headings read alike, the source gives them in different places. Some results are limits rather than exact numbers.

recombinant PI3 kinase γ, sequence (P48736 whole entry): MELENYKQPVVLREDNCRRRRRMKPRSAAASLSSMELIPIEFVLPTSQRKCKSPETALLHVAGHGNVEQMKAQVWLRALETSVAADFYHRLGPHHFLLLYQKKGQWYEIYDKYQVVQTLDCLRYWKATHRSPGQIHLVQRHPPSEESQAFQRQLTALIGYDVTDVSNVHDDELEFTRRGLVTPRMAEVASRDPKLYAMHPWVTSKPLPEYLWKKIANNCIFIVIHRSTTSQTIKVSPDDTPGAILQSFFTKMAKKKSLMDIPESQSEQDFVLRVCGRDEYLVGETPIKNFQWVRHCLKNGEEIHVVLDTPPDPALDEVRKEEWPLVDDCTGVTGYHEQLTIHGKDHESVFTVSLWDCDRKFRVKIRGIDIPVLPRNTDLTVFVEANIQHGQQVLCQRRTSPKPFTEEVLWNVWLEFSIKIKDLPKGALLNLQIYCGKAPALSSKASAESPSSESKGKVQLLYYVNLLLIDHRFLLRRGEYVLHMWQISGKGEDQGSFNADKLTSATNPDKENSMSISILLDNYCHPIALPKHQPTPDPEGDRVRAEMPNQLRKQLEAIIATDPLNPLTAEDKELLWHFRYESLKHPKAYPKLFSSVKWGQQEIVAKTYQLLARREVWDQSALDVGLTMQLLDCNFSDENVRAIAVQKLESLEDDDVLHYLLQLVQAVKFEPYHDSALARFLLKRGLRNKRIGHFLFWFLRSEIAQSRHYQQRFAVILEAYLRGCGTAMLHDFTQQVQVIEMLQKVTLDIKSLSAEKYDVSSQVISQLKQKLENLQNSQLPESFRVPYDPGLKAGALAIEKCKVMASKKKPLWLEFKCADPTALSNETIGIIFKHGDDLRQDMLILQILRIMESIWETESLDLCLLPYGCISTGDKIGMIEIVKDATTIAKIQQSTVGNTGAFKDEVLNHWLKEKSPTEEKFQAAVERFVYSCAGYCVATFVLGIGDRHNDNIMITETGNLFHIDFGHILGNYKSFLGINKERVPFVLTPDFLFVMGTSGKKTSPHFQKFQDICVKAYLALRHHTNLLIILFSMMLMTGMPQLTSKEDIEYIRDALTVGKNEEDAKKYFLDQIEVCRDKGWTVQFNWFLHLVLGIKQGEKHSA
recombinant PI3 kinase α, sequence (P42336 whole entry, the tested form may be a part): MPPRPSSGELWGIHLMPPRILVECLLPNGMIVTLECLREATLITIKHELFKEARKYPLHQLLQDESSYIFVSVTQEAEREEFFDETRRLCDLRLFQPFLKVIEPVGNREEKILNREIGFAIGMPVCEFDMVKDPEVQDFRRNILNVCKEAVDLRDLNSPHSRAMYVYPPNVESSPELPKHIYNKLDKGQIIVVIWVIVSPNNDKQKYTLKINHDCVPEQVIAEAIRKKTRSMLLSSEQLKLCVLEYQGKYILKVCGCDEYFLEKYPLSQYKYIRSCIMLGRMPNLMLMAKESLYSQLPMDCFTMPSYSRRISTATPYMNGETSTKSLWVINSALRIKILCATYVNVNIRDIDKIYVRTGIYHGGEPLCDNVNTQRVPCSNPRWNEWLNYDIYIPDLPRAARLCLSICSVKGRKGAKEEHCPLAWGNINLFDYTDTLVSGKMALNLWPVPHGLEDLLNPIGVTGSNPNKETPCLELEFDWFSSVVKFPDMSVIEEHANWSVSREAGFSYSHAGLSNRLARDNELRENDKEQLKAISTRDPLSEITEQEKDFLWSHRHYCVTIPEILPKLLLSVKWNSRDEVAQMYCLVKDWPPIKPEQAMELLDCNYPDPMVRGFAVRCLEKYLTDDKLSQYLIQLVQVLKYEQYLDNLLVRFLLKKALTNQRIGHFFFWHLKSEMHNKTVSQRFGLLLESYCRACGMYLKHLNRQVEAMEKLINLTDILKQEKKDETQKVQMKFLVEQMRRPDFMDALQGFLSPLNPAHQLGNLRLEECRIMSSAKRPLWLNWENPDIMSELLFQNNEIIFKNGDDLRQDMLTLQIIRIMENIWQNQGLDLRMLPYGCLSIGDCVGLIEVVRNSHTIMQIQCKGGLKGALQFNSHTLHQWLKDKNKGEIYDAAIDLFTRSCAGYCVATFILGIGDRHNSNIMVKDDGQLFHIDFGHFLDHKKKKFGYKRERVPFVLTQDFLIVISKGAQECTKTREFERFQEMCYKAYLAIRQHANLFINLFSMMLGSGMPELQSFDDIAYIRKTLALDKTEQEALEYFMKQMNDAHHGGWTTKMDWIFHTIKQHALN
recombinant PI3 kinase α, sequence (P27986 whole entry partner, the tested form may be a part): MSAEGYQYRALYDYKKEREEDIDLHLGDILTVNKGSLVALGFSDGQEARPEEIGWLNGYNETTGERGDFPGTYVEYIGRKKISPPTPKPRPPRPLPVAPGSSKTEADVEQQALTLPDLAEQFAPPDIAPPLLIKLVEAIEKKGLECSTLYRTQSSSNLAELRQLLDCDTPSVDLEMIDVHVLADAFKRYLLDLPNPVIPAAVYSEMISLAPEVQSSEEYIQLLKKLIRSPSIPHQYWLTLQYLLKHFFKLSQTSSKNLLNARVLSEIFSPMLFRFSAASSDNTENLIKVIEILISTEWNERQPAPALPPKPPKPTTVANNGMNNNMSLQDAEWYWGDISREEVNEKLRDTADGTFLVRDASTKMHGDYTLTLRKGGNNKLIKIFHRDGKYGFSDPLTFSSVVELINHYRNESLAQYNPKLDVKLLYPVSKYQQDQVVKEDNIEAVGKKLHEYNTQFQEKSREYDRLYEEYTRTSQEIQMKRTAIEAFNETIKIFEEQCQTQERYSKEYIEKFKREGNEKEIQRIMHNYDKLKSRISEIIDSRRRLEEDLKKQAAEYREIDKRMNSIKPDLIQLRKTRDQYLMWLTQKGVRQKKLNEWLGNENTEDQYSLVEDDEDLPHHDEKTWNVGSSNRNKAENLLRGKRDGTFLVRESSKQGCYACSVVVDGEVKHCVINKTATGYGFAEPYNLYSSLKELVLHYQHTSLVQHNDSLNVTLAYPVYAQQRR
recombinant PI3 kinase δ, sequence (O00329 whole entry): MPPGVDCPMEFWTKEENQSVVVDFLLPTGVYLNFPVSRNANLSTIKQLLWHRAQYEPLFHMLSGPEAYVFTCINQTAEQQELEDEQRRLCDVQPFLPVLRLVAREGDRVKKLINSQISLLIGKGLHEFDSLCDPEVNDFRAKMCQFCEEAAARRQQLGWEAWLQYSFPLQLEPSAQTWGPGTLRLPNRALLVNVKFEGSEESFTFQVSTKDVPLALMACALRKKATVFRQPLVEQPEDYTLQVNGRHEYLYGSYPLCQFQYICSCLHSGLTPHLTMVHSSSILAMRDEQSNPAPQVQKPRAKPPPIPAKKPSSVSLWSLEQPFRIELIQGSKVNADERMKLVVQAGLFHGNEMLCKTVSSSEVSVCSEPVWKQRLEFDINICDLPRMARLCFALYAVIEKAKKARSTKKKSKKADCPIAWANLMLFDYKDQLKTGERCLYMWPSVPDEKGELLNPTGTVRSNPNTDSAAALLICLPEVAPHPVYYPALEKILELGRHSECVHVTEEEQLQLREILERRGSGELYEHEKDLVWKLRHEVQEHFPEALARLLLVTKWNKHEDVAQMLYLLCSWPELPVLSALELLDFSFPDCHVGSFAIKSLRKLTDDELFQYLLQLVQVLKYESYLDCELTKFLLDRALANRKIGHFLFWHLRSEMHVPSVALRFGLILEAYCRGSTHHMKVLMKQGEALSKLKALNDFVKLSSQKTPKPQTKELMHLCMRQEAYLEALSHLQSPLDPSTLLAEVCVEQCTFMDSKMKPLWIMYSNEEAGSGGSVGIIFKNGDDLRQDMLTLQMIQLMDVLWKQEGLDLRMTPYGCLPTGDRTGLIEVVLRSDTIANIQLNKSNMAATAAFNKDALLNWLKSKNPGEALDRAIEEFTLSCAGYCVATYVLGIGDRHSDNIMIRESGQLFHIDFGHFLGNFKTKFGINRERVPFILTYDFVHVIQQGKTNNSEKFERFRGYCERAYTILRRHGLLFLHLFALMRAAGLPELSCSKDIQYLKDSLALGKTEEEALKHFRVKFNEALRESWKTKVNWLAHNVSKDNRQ
recombinant PI3 kinase δ, sequence (P27986 whole entry partner): as the sequence (P27986 whole entry partner, the tested form may be a part) above

Regarding `C#Cc1cccc2nc(Cn3nc(-c4ccc(O)cc4)c4c(N)ncnc43)n(Cc3cc(C)on3)c(=O)c12` [Example 32, 2-((4-Amino-3-(4-hydroxyphenyl)-1H-pyrazolo[3,4-d]pyrimidin-1-yl)methyl)-5-ethynyl-3-((5-methylisoxazol-3-yl)methyl)quinazolin-4(3H)-one], the IC50 on recombinant PI3 kinase α (setting [4]) was 50 to 1000 nM; on recombinant PI3 kinase γ (setting [5]), 50 to 1000 nM; on recombinant PI3 kinase δ (setting [6]), below 50 nM; in data set [1] (setting [7]) it was below 10 nM. Further, the “Cell Viability MTT Assay in D-U937 cells at 4 hr” value in data set [2] is listed as “− (− <30%)”. Moreover, the “Cell Viability MTT Assay in D-U937 cells at 24 hr” value in data set [2] was “− (− <30%)”. In data set [3], the “atropisomerism by chiral stationary phase HPLC” value (“atropisomerism” for short) is “no evidence for atropisomerism was observed”.

On to `C#Cc1cccc2nc(Cn3nc(-c4cccc(O)c4)c4c(N)ncnc43)n(Cc3cccc(OC)c3)c(=O)c12` [Example 15, 2-((4-Amino-3-(3-hydroxyphenyl)-1H-pyrazolo[3,4-d]pyrimidin-1-yl)methyl)-5-ethynyl-3-(3-methoxybenzyl)quinazolin-4(3H)-one], for which the IC50 is above 1000 nM on recombinant PI3 kinase α (setting [4]); 1970 nM at recombinant PI3 kinase α (read-out: PI3 Kinase Inhibition IC50 values at stated Isozyme (nM) α); 50 to 1000 nM at recombinant PI3 kinase γ (setting [5]); 289 nM on recombinant PI3 kinase γ (read-out: PI3 Kinase Inhibition IC50 values at stated Isozyme (nM) γ); below 50 nM at recombinant PI3 kinase δ (setting [6]); 4 nM at recombinant PI3 kinase δ (read-out: PI3 Kinase Inhibition IC50 values at stated Isozyme (nM) δ). Also, the IC50 was below 10 nM in data set [1] (setting [7]) and 0.57 nM in data set [1] (dU937, read-out: Cellular Activity IC50 values (H2O2 induced pAkt (nM) D-U937 Cells)). In addition, the “Cell Viability MTT Assay in D-U937 cells at 4 hr” value in data set [2] is on record as “− (− <30%)”. Besides, in data set [2], the “Cell Viability MTT Assay in D-U937 cells at 24 hr” value is “− (− <30%)”. Further, the “atropisomerism” value in data set [3] is given as “no evidence for atropisomerism was observed”.

As for `C#Cc1cccc2nc(Cn3nc(-c4cccc(O)c4)c4c(N)ncnc43)n(Cc3ccc(S(C)(=O)=O)cc3)c(=O)c12` [Example 19, 2-((4-Amino-3-(3-hydroxyphenyl)-1H-pyrazolo[3,4-d]pyrimidin-1-yl)methyl)-5-ethynyl-3-(4-(methylsulfonyl)benzyl)quinazolin-4(3H)-one], the half-inhibitory concentration (IC50) at recombinant PI3 kinase α (setting [4]) is 50 to 1000 nM; at recombinant PI3 kinase γ (setting [5]) it was 50 to 1000 nM; at recombinant PI3 kinase δ (setting [6]) it was below 50 nM; in data set [1] (setting [7]), below 10 nM. For the same compound, the “Cell Viability MTT Assay in D-U937 cells at 4 hr” value in data set [2] is given as “− (− <30%)”. The “Cell Viability MTT Assay in D-U937 cells at 24 hr” value in data set [2] is “− (− <30%)”. The “atropisomerism” value in data set [3] was “no evidence for atropisomerism was observed”.

For `C#Cc1cccc2nc(Cn3nc(-c4cccc(O)c4)c4c(N)ncnc43)n(Cc3cccc(C(F)(F)F)c3)c(=O)c12` [Example 17, 2-((4-Amino-3-(3-hydroxyphenyl)-1H-pyrazolo[3,4-d]pyrimidin-1-yl)methyl)-5-ethynyl-3-(3-(trifluoromethyl)benzyl)quinazolin-4(3H)-one], the IC50 was 50 to 1000 nM at recombinant PI3 kinase α (setting [4]), above 1000 nM on recombinant PI3 kinase γ (setting [5]), below 50 nM at recombinant PI3 kinase δ (setting [6]) and below 10 nM in data set [1] (setting [7]). Further, in data set [2], the “Cell Viability MTT Assay in D-U937 cells at 4 hr” value is “− (− <30%)”. Further, the “Cell Viability MTT Assay in D-U937 cells at 24 hr” value in data set [2] was “− (− <30%)”. Besides, the “atropisomerism” value in data set [3] is on record as “no evidence for atropisomerism was observed”.

With `C#Cc1cccc2nc(Cn3nc(-c4ccc(O)cc4)c4c(N)ncnc43)n(Cc3ccccc3F)c(=O)c12` [Example 13, 2-((4-Amino-3-(4-hydroxyphenyl)-1H-pyrazolo[3,4-d]pyrimidin-1-yl)methyl)-5-ethynyl-3-(2-fluorobenzyl) quinazolin-4(3H)-one], the IC50 at recombinant PI3 kinase α (setting [4]) is 50 to 1000 nM; at recombinant PI3 kinase γ (setting [5]), 50 to 1000 nM; on recombinant PI3 kinase δ (setting [6]), below 50 nM; in data set [1] (setting [8]), below 10 nM. Further, in data set [2], the “Cell Viability MTT Assay in D-U937 cells at 4 hr” value is “− (− <30%)”. In data set [2], the “Cell Viability MTT Assay in D-U937 cells at 24 hr” value is on record as “− (− <30%)”. The “atropisomerism” value in data set [3] is listed as “no evidence for atropisomerism was observed”.

With `C#Cc1cccc2nc(Cn3nc(-c4cccc(O)c4)c4c(N)ncnc43)n(Cc3cccc(S(C)(=O)=O)c3)c(=O)c12` [Example 23, 2-((4-Amino-3-(3-hydroxyphenyl)-1H-pyrazolo[3,4-d]pyrimidin-1-yl)methyl)-5-ethynyl-3-(3-(methylsulfonyl)benzyl)quinazolin-4(3H)-one], the IC50 was 50 to 1000 nM at recombinant PI3 kinase α (setting [4]), 50 to 1000 nM at recombinant PI3 kinase γ (setting [5]), below 50 nM on recombinant PI3 kinase δ (setting [6]) and below 10 nM in data set [1] (setting [7]). Besides, the “Cell Viability MTT Assay in D-U937 cells at 4 hr” value in data set [2] was “− (− <30%)”. For the same compound, in data set [2], the “Cell Viability MTT Assay in D-U937 cells at 24 hr” value is “− (− <30%)”. The “atropisomerism” value in data set [3] is “no evidence for atropisomerism was observed”.

Consider `C#Cc1cccc2nc(Cn3nc(-c4ccc(O)cc4)c4c(N)ncnc43)n(Cc3c(F)cccc3F)c(=O)c12` [Example 34, 2-((4-Amino-3-(4-hydroxyphenyl)-1H-pyrazolo[3,4-d]pyrimidin-1-yl)methyl)-3-(2,6-difluorobenzyl)-5-ethynylquinazolin-4(3H)-one], for which the IC50 at recombinant PI3 kinase α (setting [4]) is 50 to 1000 nM; at recombinant PI3 kinase γ (setting [5]), 50 to 1000 nM; at recombinant PI3 kinase δ (setting [6]), below 50 nM; in data set [1] (setting [7]), below 10 nM. The “Cell Viability MTT Assay in D-U937 cells at 4 hr” value in data set [2] was “− (− <30%)”. In addition, in data set [2], the “Cell Viability MTT Assay in D-U937 cells at 24 hr” value is recorded as “− (− <30%)”. Also, the “atropisomerism” value in data set [3] is recorded as “no evidence for atropisomerism was observed”.

Turning to `C#Cc1cccc2nc(Cn3nc(-c4ccc(O)cc4)c4c(N)ncnc43)n(Cc3ccc(Cl)cc3)c(=O)c12` [Example 18, 2-((4-Amino-3-(4-hydroxyphenyl)-1H-pyrazolo[3,4-d]pyrimidin-1-yl)methyl)-3-(4-chlorobenzyl)-5-ethynyl quinazolin-4(3H)-one], the IC50 is 50 to 1000 nM at recombinant PI3 kinase α (setting [4]), 50 to 1000 nM at recombinant PI3 kinase γ (setting [5]), below 50 nM at recombinant PI3 kinase δ (setting [6]) and below 10 nM in data set [1] (setting [7]). Moreover, in data set [2], the “Cell Viability MTT Assay in D-U937 cells at 4 hr” value is “− (− <30%)”. The “Cell Viability MTT Assay in D-U937 cells at 24 hr” value in data set [2] is reported as “− (− <30%)”. Besides, the “atropisomerism” value in data set [3] is reported as “no evidence for atropisomerism was observed”.

In the case of `C#Cc1cccc2nc(Cn3nc(-c4cccc(O)c4)c4c(N)ncnc43)n(Cc3ccccc3F)c(=O)c12` [Example 12, 2-((4-Amino-3-(3-hydroxyphenyl)-1H-pyrazolo[3,4-d]pyrimidin-1-yl)methyl)-5-ethynyl-3-(2-fluorobenzyl) quinazolin-4(3H)-one], the IC50 is 50 to 1000 nM at recombinant PI3 kinase α (setting [4]), 50 to 1000 nM at recombinant PI3 kinase γ (setting [5]), below 50 nM at recombinant PI3 kinase δ (setting [6]) and below 10 nM in data set [1] (setting [8]). In data set [2], the “Cell Viability MTT Assay in D-U937 cells at 4 hr” value is listed as “+ (+ >30%)”. In data set [2], the “Cell Viability MTT Assay in D-U937 cells at 24 hr” value is reported as “− (− <30%)”. Further, the “atropisomerism” value in data set [3] is listed as “no evidence for atropisomerism was observed”.

Take `C#Cc1cccc2nc(Cn3nc(-c4cccc(O)c4)c4c(N)ncnc43)n(Cc3ccc(Cl)cc3)c(=O)c12` [Example 25, 2-((4-Amino-3-(3-hydroxyphenyl)-1H-pyrazolo[3,4-d]pyrimidin-1-yl)methyl)-3-(4-chlorobenzyl)-5-ethynylquinazolin-4(3H)-one]: the IC50 was 50 to 1000 nM at recombinant PI3 kinase α (setting [4]), 50 to 1000 nM on recombinant PI3 kinase γ (setting [5]), below 50 nM at recombinant PI3 kinase δ (setting [6]) and below 10 nM in data set [1] (setting [7]). In data set [2], the “Cell Viability MTT Assay in D-U937 cells at 4 hr” value is recorded as “− (− <30%)”. Besides, in data set [2], the “Cell Viability MTT Assay in D-U937 cells at 24 hr” value is reported as “− (− <30%)”. In addition, in data set [3], the “atropisomerism” value is “no evidence for atropisomerism was observed”.

Turning to `C#Cc1cccc2nc(Cn3nc(-c4ccc(O)cc4)c4c(N)ncnc43)n(Cc3ccc(S(C)(=O)=O)cc3)c(=O)c12` [Example 20, 2-((4-Amino-3-(4-hydroxyphenyl)-1H-pyrazolo[3,4-d]pyrimidin-1-yl)methyl)-5-ethynyl-3-(4-(methylsulfonyl)benzyl)quinazolin-4(3H)-one], the IC50 at recombinant PI3 kinase α (setting [4]) was 50 to 1000 nM; on recombinant PI3 kinase γ (setting [5]), 50 to 1000 nM; on recombinant PI3 kinase δ (setting [6]), below 50 nM; in data set [1] (setting [7]), below 10 nM. In addition, the “Cell Viability MTT Assay in D-U937 cells at 4 hr” value in data set [2] is “− (− <30%)”. Moreover, in data set [2], the “Cell Viability MTT Assay in D-U937 cells at 24 hr” value is listed as “− (− <30%)”. Moreover, the “atropisomerism” value in data set [3] was “no evidence for atropisomerism was observed”.

Source of the values: patent publication US9321773B2, “Compounds” (Respivert Ltd, priority 2009, dated 2016).
